Experimental data: patent US10231954B2, “Neurodegenerative therapies” (LYTIX BIOPHARMA AS, priority 2014, dated 2019)

Columns and labels:
[1] = target: RIPK2 (Homo sapiens, UniProt O43353); assay: Kinase profiling RIPK2; assay type: biochemical; conditions: for residual kinase activity, RIPK2: 100 micromolar inhibitor concentration, 100 is no change
Excerpt: (§1) Any value less that 25 is considered to be highly significant inhibition.

[2] = target: p38a MAPK (Homo sapiens, UniProt Q16539); assay: Kinase profiling p38a MAPK; assay type: biochemical; conditions: for residual kinase activity, p38a MAPK: 100 micromolar inhibitor concentration, 100 is no change
Excerpt: as §1

[3] = target: EPH-A2 (Homo sapiens, UniProt P29317); assay: Kinase profiling EPH-A2; assay type: biochemical; conditions: for residual kinase activity, EPH-A2: 100 micromolar inhibitor concentration, 100 is no change
Excerpt: as §1

[4] = target: JAK2 (Homo sapiens, UniProt O60674); assay: Kinase profiling JAK2; assay type: biochemical; conditions: for residual kinase activity, JAK2: 100 micromolar inhibitor concentration, 100 is no change
Excerpt: as §1

[5] = tested on: AMPK (hum); assay: Kinase profiling AMPK (hum); assay type: biochemical, human; conditions: 100 micromolar inhibitor concentration; 100 is no change
Excerpt: as §1

[6] = target: T1, TAK1 (Homo sapiens, UniProt O43318); assay: Kinase profiling TAK1; assay type: biochemical; conditions: for residual kinase activity, TAK1: 100 micromolar inhibitor concentration, 100 is no change
T1 sequence (O43318 1-303 limits assumed): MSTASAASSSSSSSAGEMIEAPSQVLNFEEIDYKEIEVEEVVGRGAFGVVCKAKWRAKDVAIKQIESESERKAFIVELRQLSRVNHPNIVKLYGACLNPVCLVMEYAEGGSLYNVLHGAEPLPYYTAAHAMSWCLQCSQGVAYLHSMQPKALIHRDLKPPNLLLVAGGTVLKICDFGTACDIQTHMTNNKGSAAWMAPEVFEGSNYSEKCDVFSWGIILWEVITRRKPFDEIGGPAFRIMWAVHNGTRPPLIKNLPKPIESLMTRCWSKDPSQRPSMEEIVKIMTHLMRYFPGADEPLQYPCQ
T1 sequence (Q15750 437-504 partner limits assumed): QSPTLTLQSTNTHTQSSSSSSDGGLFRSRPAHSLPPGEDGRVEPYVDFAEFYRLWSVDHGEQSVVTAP
Excerpt: as §1

[7] = target: PKA (Homo sapiens, UniProt P17612); assay: Kinase profiling PKA; assay type: biochemical; conditions: for residual kinase activity, PKA: 100 micromolar inhibitor concentration, 100 is no change
Excerpt: as §1

[8] = target: T2, IRAK4 (Homo sapiens, UniProt Q9NWZ3); assay: Kinase profiling IRAK4; assay type: biochemical; conditions: for residual kinase activity, IRAK4: 100 micromolar inhibitor concentration, 100 is no change
T2 sequence (Q9NWZ3 1-460): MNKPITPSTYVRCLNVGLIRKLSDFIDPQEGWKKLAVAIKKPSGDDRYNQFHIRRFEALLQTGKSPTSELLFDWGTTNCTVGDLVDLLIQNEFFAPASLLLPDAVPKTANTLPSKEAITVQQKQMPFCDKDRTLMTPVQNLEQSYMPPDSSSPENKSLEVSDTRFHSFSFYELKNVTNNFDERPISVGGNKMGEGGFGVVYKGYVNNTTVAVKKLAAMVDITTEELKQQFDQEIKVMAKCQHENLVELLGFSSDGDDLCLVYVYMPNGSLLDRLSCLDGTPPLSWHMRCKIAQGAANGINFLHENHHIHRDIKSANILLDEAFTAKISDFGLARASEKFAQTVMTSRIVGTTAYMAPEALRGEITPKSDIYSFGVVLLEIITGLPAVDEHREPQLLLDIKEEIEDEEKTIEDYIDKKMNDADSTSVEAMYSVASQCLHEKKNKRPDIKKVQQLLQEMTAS
Excerpt: as §1

[9] = target: ROCK 2 (Homo sapiens, UniProt O75116); assay: Kinase profiling ROCK 2; assay type: biochemical; conditions: for residual kinase activity, ROCK 2: 100 micromolar inhibitor concentration, 100 is no change
Excerpt: as §1

[10] = target: PIM1 (Homo sapiens, UniProt P11309); assay: Kinase profiling PIM1; assay type: biochemical; conditions: for residual kinase activity, PIM1: 100 micromolar inhibitor concentration, 100 is no change
Excerpt: as §1

[11] = target: PKCa (Homo sapiens, UniProt P17252); assay: Kinase profiling PKCa; assay type: biochemical; conditions: for residual kinase activity, PKCa: 100 micromolar inhibitor concentration, 100 is no change
Excerpt: as §1

[12] = target: T3, PKD1 (Homo sapiens, UniProt Q15139); assay: Kinase profiling PKD1; assay type: biochemical; conditions: for residual kinase activity, PKD1: 100 micromolar inhibitor concentration, 100 is no change
T3 sequence (Q15139 1-912): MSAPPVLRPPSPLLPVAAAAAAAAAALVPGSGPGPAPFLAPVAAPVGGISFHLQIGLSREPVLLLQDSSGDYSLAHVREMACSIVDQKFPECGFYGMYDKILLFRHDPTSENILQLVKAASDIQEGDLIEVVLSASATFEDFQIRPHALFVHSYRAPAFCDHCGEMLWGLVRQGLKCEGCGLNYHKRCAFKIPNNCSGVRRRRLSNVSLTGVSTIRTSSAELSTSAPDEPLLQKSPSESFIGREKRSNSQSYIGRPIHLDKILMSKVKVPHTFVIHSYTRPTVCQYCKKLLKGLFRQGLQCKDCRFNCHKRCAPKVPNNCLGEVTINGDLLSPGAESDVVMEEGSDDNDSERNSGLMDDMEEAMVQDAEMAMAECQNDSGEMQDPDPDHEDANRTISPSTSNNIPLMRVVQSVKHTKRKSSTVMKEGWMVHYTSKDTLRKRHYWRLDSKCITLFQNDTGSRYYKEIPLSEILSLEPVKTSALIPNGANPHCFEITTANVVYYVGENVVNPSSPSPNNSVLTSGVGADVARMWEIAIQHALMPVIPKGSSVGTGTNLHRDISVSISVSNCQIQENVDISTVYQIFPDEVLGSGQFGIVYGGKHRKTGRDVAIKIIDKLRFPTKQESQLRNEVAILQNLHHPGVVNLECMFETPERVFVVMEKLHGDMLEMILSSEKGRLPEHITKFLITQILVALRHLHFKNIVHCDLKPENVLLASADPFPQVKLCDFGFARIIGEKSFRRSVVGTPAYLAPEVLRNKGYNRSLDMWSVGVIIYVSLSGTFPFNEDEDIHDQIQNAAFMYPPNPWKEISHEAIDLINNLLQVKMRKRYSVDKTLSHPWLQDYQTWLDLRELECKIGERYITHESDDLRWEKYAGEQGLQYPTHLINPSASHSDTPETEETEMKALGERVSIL
Excerpt: as §1

EPH-A2, sequence (P29317 24-976, species assumed): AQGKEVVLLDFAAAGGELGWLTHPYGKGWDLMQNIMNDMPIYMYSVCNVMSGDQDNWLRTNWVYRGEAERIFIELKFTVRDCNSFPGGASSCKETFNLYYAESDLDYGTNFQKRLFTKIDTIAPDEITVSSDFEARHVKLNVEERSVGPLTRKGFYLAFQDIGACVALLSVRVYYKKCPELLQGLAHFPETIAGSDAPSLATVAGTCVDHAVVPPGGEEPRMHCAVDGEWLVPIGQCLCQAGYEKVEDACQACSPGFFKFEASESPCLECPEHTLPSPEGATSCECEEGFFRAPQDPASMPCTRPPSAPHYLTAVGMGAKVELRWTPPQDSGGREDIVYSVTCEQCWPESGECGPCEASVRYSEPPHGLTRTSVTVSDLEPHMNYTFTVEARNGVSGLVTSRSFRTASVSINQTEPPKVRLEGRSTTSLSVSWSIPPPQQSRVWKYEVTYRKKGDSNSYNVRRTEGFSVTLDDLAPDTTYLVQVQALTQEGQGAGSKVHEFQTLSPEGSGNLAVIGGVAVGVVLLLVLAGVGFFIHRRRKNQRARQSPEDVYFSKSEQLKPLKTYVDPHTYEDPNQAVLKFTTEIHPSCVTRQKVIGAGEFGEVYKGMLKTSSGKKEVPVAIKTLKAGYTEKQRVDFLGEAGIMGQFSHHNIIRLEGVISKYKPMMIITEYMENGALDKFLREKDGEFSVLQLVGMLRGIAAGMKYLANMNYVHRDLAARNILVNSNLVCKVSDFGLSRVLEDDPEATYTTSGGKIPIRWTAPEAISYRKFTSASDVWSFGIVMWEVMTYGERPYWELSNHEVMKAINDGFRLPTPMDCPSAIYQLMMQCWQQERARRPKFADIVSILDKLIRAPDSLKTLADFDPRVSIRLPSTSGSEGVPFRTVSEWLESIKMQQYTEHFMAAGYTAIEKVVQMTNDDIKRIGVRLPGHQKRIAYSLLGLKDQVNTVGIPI
JAK2, sequence (O60674 whole entry, species assumed): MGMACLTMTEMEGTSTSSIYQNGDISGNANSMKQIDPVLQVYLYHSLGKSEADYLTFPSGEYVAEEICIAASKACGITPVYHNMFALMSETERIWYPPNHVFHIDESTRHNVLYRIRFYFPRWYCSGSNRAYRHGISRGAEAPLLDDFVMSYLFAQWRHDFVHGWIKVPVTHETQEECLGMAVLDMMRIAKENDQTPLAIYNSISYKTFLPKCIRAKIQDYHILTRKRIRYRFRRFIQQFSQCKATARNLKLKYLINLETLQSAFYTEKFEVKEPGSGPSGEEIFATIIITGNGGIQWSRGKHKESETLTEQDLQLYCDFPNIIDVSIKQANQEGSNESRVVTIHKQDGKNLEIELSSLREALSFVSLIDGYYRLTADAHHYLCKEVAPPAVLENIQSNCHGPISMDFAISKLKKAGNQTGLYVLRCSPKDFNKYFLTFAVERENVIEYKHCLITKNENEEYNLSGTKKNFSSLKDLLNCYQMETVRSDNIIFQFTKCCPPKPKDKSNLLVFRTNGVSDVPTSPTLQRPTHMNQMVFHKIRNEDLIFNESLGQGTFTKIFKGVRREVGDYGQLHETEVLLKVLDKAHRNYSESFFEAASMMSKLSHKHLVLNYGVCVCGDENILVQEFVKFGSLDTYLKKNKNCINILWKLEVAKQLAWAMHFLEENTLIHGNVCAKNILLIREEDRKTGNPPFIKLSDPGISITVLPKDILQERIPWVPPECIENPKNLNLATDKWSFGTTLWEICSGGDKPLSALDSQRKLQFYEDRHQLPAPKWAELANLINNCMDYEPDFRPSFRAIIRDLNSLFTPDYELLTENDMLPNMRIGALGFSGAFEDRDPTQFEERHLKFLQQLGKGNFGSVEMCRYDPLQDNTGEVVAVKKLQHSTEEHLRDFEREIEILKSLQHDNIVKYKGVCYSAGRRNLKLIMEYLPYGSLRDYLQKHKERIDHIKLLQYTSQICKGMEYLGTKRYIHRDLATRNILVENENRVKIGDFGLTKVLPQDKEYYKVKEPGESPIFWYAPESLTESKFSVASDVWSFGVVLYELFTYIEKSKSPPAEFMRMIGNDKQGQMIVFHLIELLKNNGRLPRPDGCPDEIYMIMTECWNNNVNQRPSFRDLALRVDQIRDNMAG
RIPK2, sequence (O43353 whole entry, species assumed): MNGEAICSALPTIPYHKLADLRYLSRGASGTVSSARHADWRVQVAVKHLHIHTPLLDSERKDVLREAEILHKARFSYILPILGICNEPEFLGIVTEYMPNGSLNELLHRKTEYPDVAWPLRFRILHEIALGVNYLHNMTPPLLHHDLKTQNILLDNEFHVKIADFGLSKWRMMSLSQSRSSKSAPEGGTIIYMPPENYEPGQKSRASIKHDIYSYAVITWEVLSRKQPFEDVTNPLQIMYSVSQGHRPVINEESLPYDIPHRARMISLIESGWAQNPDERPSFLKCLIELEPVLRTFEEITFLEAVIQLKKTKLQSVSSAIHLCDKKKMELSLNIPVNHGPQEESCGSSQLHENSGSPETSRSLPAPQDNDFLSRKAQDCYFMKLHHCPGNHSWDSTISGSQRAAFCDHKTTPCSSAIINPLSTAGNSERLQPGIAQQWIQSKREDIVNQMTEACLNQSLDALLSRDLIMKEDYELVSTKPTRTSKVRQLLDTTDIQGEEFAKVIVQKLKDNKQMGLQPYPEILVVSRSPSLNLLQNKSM
ROCK 2, sequence (O75116 whole entry, species assumed): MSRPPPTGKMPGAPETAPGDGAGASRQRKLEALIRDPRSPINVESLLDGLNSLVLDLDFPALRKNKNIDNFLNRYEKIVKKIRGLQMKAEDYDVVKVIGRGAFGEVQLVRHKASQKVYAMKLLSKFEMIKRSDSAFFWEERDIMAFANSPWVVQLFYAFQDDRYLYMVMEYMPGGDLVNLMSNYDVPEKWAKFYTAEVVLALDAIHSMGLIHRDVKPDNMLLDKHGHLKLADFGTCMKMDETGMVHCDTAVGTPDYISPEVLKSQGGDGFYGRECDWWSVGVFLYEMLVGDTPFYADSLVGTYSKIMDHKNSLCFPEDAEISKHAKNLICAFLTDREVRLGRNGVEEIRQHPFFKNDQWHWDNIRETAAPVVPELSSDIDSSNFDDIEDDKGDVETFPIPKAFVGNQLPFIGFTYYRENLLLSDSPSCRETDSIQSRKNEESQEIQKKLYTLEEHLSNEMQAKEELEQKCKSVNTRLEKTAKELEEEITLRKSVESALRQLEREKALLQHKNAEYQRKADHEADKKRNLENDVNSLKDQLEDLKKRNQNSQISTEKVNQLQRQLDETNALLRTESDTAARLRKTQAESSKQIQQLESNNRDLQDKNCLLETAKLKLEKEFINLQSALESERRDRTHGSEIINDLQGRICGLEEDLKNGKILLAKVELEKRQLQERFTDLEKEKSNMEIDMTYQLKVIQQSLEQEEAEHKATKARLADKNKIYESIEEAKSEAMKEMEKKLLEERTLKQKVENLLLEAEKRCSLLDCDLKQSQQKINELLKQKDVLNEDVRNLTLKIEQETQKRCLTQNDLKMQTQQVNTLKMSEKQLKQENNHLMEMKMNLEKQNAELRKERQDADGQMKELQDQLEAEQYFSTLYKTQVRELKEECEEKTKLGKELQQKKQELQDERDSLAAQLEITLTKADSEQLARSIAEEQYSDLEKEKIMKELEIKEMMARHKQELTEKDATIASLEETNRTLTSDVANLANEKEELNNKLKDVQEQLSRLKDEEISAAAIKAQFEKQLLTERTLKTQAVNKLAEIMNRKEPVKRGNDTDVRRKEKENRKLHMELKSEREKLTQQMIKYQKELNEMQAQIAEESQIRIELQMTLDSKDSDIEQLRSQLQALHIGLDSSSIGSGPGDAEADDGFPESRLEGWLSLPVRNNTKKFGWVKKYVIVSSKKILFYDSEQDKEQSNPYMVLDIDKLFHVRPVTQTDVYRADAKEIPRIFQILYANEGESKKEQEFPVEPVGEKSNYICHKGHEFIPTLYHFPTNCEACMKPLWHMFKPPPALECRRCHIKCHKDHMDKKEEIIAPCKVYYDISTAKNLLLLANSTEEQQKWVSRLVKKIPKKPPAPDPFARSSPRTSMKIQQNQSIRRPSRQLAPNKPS
p38a MAPK, sequence (Q16539 whole entry): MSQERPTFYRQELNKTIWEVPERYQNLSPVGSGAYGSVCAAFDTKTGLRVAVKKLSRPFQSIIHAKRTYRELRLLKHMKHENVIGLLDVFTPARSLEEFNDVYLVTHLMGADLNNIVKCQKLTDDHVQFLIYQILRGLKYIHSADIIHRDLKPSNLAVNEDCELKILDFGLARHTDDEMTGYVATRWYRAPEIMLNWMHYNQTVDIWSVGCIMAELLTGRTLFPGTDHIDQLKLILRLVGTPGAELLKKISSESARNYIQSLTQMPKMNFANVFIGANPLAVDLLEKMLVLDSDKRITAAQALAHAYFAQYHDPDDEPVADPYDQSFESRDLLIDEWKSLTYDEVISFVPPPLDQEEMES

Structure (SMILES) | residual kinase activity, RIPK2 [1] | residual kinase activity, p38a MAPK [2] | residual kinase activity, EPH-A2 [3] | residual kinase activity, JAK2 [4] | residual kinase activity, AMPK (hum) [5] | residual kinase activity, TAK1 [6] | residual kinase activity, PKA [7] | residual kinase activity, IRAK4 [8] | residual kinase activity, ROCK 2 [9] | residual kinase activity, PIM1 [10] | residual kinase activity, PKCa [11] | residual kinase activity, PKD1 [12] | further results
O=C(Nc1nc2ccc(F)cc2s1)c1ccccc1 [Compound 03-92] | 69 | 114 | 98 | 109 | 76 | 79 | 96 | 72 | 95 | 69 | 96 | 111 | 
CC(=O)Nc1nc2ccc(F)cc2s1 [Compound 03-94] | 38 | 84 | 94 | 49 | 59 | 26 | 93 | 44 | 70 | 40 | 98 | 105 | 
COc1ccc2sc(NC(=O)c3ccccc3)nc2c1 [Compound 03-95] | 40 | 82 | 91 | 86 | 75 | 45 | 83 | 57 | 54 | 19 | 53 | 92 | 
COc1ccc2nc(NC(=O)c3ccccc3)sc2c1 [Compound 03-98] | 34 | 86 | 95 | 81 | 94 | 60 | 90 | 46 | 66 | 76 | 89 | 104 | 
O=C(Nc1nc2ccc(C(F)(F)F)cc2s1)c1ccccc1 [Compound 03-99] | 89 | 86 | 110 | 87 | 73 | 95 | 96 | 70 | 97 | 78 | 114 | 114 | 
O=C(Nc1nc2cc(O)ccc2s1)c1ccccc1 [Compound 03-102] | 24 | 57 | 65 | 47 | 49 | 31 | 93 | 34 | 47 | 14 | 72 | 60 | 
COC(=O)c1cccc(C(=O)Nc2nc3ccc(C(F)(F)F)cc3s2)c1 [Compound 03-105, Methyl 3-((6-(trifluoromethyl)benzo[d]thiazol-2-yl)carbamoyl)benzoate] |  |  |  |  | 71 |  |  |  |  |  |  |  | remaining activity at 100 µM ([1]; read-out: residual kinase activity, RIPK2): 79%; remaining activity at 100 µM ([2]; read-out: residual kinase activity, p38a MAPK): 84%; remaining activity at 100 µM ([3]; read-out: residual kinase activity, EPH-A2): 100%; remaining activity at 100 µM ([4]; read-out: residual kinase activity, JAK2): 101%; remaining activity at 100 µM ([6]; read-out: residual kinase activity, TAK1): 76%; remaining activity at 100 µM ([7]; read-out: residual kinase activity, PKA): 96%; remaining activity at 100 µM ([8]; read-out: residual kinase activity, IRAK4): 78%; remaining activity at 100 µM ([9]; read-out: residual kinase activity, ROCK 2): 103%; remaining activity at 100 µM ([10]; read-out: residual kinase activity, PIM1): 72%; remaining activity at 100 µM ([11]; read-out: residual kinase activity, PKCa): 96%; remaining activity at 100 µM ([12]; read-out: residual kinase activity, PKD1): 90%
N#Cc1ccc2nc(NC(=O)c3ccccc3)sc2c1 [Compound 03-106] | 78 | 60 | 89 | 87 | 80 | 37 | 91 | 70 | 125 | 32 | 100 | 86 | 
COC(=O)c1cccc(C(=O)Nc2nc3cc(OC)ccc3s2)c1 [Compound 03-108] | 39 | 94 | 76 | 85 | 101 | 81 | 92 | 63 | 52 | 95 | 85 | 102 | 
COC(=O)c1cccc(C(=O)Nc2nc3ccc(F)cc3s2)c1 [Compound 03-110] | 48 | 106 | 84 | 89 | 69 | 68 | 93 | 96 | 86 | 99 | 109 | 88 | 
COc1ccc2sc(NC(=O)c3cccc(C(N)=O)c3)nc2c1 [Compound 03-113] | 99 | 113 | 96 | 113 | 96 | 35 | 101 | 58 | 68 | 50 | 103 | 110 | 
